Measurements published in ChEMBL document CHEMBL4251611, “The synthesis, antifungal and apoptotic effects of triazole-oxadiazoles against Candida species” (Eur J Med Chem, 2018).
≈ marks a conversion by molar mass, not a printed value.

Legend:
Pichia kudriavzevii [1] = assay: Antifungal activity against Candida krusei ATCC 6258 by broth microdilution assay; type: functional
Candida parapsilosis [2] = assay: Antifungal activity against Candida parapsilosis ATCC 22019 by broth microdilution assay; type: functional; conditions: Lodderomyces parapsilosis
Nakaseomyces glabratus [3] = assay: Antifungal activity against Candida glabrata ATCC 90030 by broth microdilution assay; type: functional
NIH3T3 = assay: Cytotoxicity against mouse NIH/3T3 cells assessed as reduction in cell viability after 24 hrs by MTT assay; type: cell-based; conditions: NIH3T3, 24 h
Candida albicans [4] = assay: Antifungal activity against Candida albicans ATCC 90028 by broth microdilution assay; type: functional
Pichia kudriavzevii [5] = assay: Induction of apoptosis in Candida krusei ATCC 6258 assessed as live cells at antifungal MIC90 after 24 hrs by Annexin V/propidium iodide staining based flow cytometry (reference value: 97.3%); type: functional
Candida albicans [6] = assay: Induction of apoptosis in Candida albicans ATCC 90028 assessed as early apoptotic cells at antifungal MIC90 after 24 hrs by Annexin V/propidium iodide staining based flow cytometry (reference value: 0%); type: functional
Nakaseomyces glabratus [7] = assay: Induction of apoptosis in Candida glabrata ATCC 90030 assessed as early apoptotic cells at antifungal MIC90 after 24 hrs by Annexin V/propidium iodide staining based flow cytometry (reference value: 0%); type: functional
Candida parapsilosis [8] = assay: Induction of apoptosis in Candida parapsilosis ATCC 22019 assessed as live cells at antifungal MIC90 after 24 hrs by Annexin V/propidium iodide staining based flow cytometry (reference value: 97.6%); type: functional
Nakaseomyces glabratus [9] = assay: Induction of apoptosis in Candida glabrata ATCC 90030 assessed as late apoptotic cells at antifungal MIC90 after 24 hrs by Annexin V/propidium iodide staining based flow cytometry (reference value: 0.2%); type: functional
Candida parapsilosis [10] = assay: Induction of apoptosis in Candida parapsilosis ATCC 22019 assessed as necrotic cells at antifungal MIC90 after 24 hrs by Annexin V/propidium iodide staining based flow cytometry (reference value: 1.4%); type: functional
Pichia kudriavzevii [11] = assay: Induction of apoptosis in Candida krusei ATCC 6258 assessed as early apoptotic cells at antifungal MIC90 after 24 hrs by Annexin V/propidium iodide staining based flow cytometry (reference value: 0.5%); type: functional
Pichia kudriavzevii [12] = assay: Induction of apoptosis in Candida krusei ATCC 6258 assessed as late apoptotic cells at antifungal MIC90 after 24 hrs by Annexin V/propidium iodide staining based flow cytometry (reference value: 1.4%); type: functional
Nakaseomyces glabratus [13] = assay: Induction of apoptosis in Candida glabrata ATCC 90030 assessed as live cells at antifungal MIC90 after 24 hrs by Annexin V/propidium iodide staining based flow cytometry (reference value: 99.5%); type: functional
Pichia kudriavzevii [14] = assay: Induction of apoptosis in Candida krusei ATCC 6258 assessed as necrotic cells at antifungal MIC90 after 24 hrs by Annexin V/propidium iodide staining based flow cytometry (reference value: 0.9%); type: functional
Candida albicans [15] = assay: Induction of apoptosis in Candida albicans ATCC 90028 assessed as late apoptotic cells at antifungal MIC90 after 24 hrs by Annexin V/propidium iodide staining based flow cytometry (reference value: 0%); type: functional
Candida parapsilosis [16] = assay: Induction of apoptosis in Candida parapsilosis ATCC 22019 assessed as early apoptotic cells at antifungal MIC90 after 24 hrs by Annexin V/propidium iodide staining based flow cytometry (reference value: 0.1%); type: functional
Nakaseomyces glabratus [17] = assay: Induction of apoptosis in Candida glabrata ATCC 90030 assessed as necrotic cells at antifungal MIC90 after 24 hrs by Annexin V/propidium iodide staining based flow cytometry (reference value: 0.3%); type: functional
Candida albicans [18] = assay: Induction of apoptosis in Candida albicans ATCC 90028 assessed as necrotic cells at antifungal MIC90 after 24 hrs by Annexin V/propidium iodide staining based flow cytometry (reference value: 0.2%); type: functional
Candida parapsilosis [19] = assay: Induction of apoptosis in Candida parapsilosis ATCC 22019 assessed as late apoptotic cells at antifungal MIC90 after 24 hrs by Annexin V/propidium iodide staining based flow cytometry (reference value: 0.9%); type: functional
Candida albicans [20] = assay: Induction of apoptosis in Candida albicans ATCC 90028 assessed as live cells at antifungal MIC90 after 24 hrs by Annexin V/propidium iodide staining based flow cytometry (reference value: 99.8%); type: functional
Candida parapsilosis [21] = assay: Induction of apoptosis in Candida parapsilosis ATCC 22019 assessed as increase in late apoptotic cells at antifungal MIC90 by Annexin V/propidium iodide staining based flow cytometry; type: functional, organism-based; conditions: TDE = time-dependent effect
Nakaseomyces glabratus [22] = assay: Induction of apoptosis in Candida glabrata ATCC 90030 assessed as increase in late apoptotic cells at antifungal MIC90 by Annexin V/propidium iodide staining based flow cytometry; type: functional, organism-based; conditions: TDE = time-dependent effect
Pichia kudriavzevii [23] = assay: Induction of apoptosis in Candida krusei ATCC 6258 assessed as increase in late apoptotic cells at antifungal MIC90 by Annexin V/propidium iodide staining based flow cytometry; type: functional, organism-based; conditions: TDE = time-dependent effect
Candida albicans [24] = assay: Induction of apoptosis in Candida albicans ATCC 90028 assessed as increase in late apoptotic cells at antifungal MIC90 by Annexin V/propidium iodide staining based flow cytometry; type: functional, organism-based; conditions: TDE = time-dependent effect

SMILES	MIC90 (Pichia kudriavzevii [1]) [mg/L]	MIC90 (Candida parapsilosis [2]) [mg/L]	MIC90 (Nakaseomyces glabratus [3]) [mg/L]	IC50 (NIH3T3) [mg/L]	MIC90 (Candida albicans [4]) [mg/L]	Activity (Pichia kudriavzevii [5]) [%]	Activity (Candida albicans [6]) [%]	Activity (Nakaseomyces glabratus [7]) [%]	Activity (Candida parapsilosis [8]) [%]	Activity (Nakaseomyces glabratus [9]) [%]	Activity (Candida parapsilosis [10]) [%]	Activity (Pichia kudriavzevii [11]) [%]	Activity (Pichia kudriavzevii [12]) [%]	Activity (Nakaseomyces glabratus [13]) [%]	Activity (Pichia kudriavzevii [14]) [%]	Activity (Candida albicans [15]) [%]	Activity (Candida parapsilosis [16]) [%]	Activity (Nakaseomyces glabratus [17]) [%]	Activity (Candida albicans [18]) [%]	Activity (Candida parapsilosis [19]) [%]	other results
Cn1cnnc1SCCc1nnc(SCC(=O)Nc2nc3ccccc3s2)o1	250 (≈ 577 µM)	250 (≈ 577 µM)	250 (≈ 577 µM)	> 500	125 (≈ 288 µM)	–	–	–	–	–	–	–	–	–	–	–	–	–	–	–	–
Cn1cnnc1SCCc1nnc(SCC(=O)Nc2ccccc2)o1	500 (≈ 1330 µM)	500 (≈ 1330 µM)	250 (≈ 664 µM)	> 500	250 (≈ 664 µM)	–	–	–	–	–	–	–	–	–	–	–	–	–	–	–	–
Clc1ccccc1C(c1ccccc1)(c1ccccc1)n1ccnc1 [CLOTRIMAZOLE]	1.56 (≈ 4.54 µM)	1.56 (≈ 4.54 µM)	62.5 (≈ 181 µM)	289 (≈ 839 µM)	31.2 (≈ 90.6 µM)	32.6	0.6	0.3	50.7	2.7	42.2	0.6	12.4	46.3	54.3	3.1	0.8	50.7	39.7	6.4	Activity (Candida albicans [20]): 56.7%
Cn1cnnc1SCCc1nnc(SCC(=O)Nc2nc3ccc([N+](=O)[O-])cc3s2)o1	500 (≈ 1040 µM)	62.5 (≈ 131 µM)	500 (≈ 1040 µM)	> 500	125 (≈ 261 µM)	–	–	–	–	–	–	–	–	–	–	–	–	–	–	–	–
Cn1cnnc1SCCc1nnc(SCC(=O)Nc2ccc(F)cc2)o1	500 (≈ 1270 µM)	500 (≈ 1270 µM)	250 (≈ 634 µM)	> 500	250 (≈ 634 µM)	–	–	–	–	–	–	–	–	–	–	–	–	–	–	–	–
Cn1cnnc1SCCc1nnc(SCC(=O)Nc2ccc([N+](=O)[O-])cc2)o1	125 (≈ 297 µM)	125 (≈ 297 µM)	62.5 (≈ 148 µM)	> 500	62.5 (≈ 148 µM)	70.5	0.4	0.4	93.4	1.8	4.2	0.3	3.4	78.7	25.9	13.5	0.3	19.1	7	4.2	Activity (Candida albicans [20]): 79.1%
Cn1cnnc1SCCc1nnc(SCC(=O)Nc2nc3ccc(F)cc3s2)o1	62.5 (≈ 138 µM)	62.5 (≈ 138 µM)	62.5 (≈ 138 µM)	> 500	62.5 (≈ 138 µM)	30.2	0.1	0.1	40.5	36.6	17.7	0	42.3	46.4	27.5	39.5	0.1	17	13.5	41.7	Activity (Candida parapsilosis [21]): Tde; Activity (Nakaseomyces glabratus [22]): Tde; Activity (Pichia kudriavzevii [23]): Tde; Activity (Candida albicans [24]): Tde; Activity (Candida albicans [20]): 46.9%
COc1ccc2nc(NC(=O)CSc3nnc(CCSc4nncn4C)o3)sc2c1	500 (≈ 1080 µM)	62.5 (≈ 135 µM)	500 (≈ 1080 µM)	485 (≈ 1050 µM)	125 (≈ 270 µM)	–	–	–	–	–	–	–	–	–	–	–	–	–	–	–	–
COc1ccc(NC(=O)CSc2nnc(CCSc3nncn3C)o2)cc1	500 (≈ 1230 µM)	500 (≈ 1230 µM)	250 (≈ 615 µM)	> 500	250 (≈ 615 µM)	–	–	–	–	–	–	–	–	–	–	–	–	–	–	–	–
Cn1cnnc1SCCc1nnc(SCC(=O)Nc2ccc(Cl)cc2)o1	500 (≈ 1220 µM)	500 (≈ 1220 µM)	250 (≈ 608 µM)	> 500	250 (≈ 608 µM)	–	–	–	–	–	–	–	–	–	–	–	–	–	–	–	–
CC(=O)N1CCN(c2ccc(OCC3COC(Cn4ccnc4)(c4ccc(Cl)cc4Cl)O3)cc2)CC1 (stereo not drawn) [KETOCONAZOLE]	1.56 (≈ 2.94 µM)	1.56 (≈ 2.94 µM)	62.5 (≈ 118 µM)	396 (≈ 745 µM)	62.5 (≈ 118 µM)	23.8	1.1	0.1	27	4.1	57.3	0.3	8.3	23.7	67.7	11.2	0.5	72	52.4	15.2	Activity (Candida albicans [20]): 35.3%
Cn1cnnc1SCCc1nnc(SCC(=O)Nc2nc3ccc(Cl)cc3s2)o1	500 (≈ 1070 µM)	62.5 (≈ 134 µM)	500 (≈ 1070 µM)	422 (≈ 902 µM)	125 (≈ 267 µM)	–	–	–	–	–	–	–	–	–	–	–	–	–	–	–	–
